{
  "source": "paper PMC12329412",
  "about": "“Study of the mass balance, biotransformation, and safety of [^14C]IBI351 in healthy Chinese subjects” (Journal of Biomedical Research, 2024)",
  "key": {"[1]": {"test": "Pharmacokinetics of total radioactivity (TRA) in plasma by liquid scintillation counting", "format": "in vivo, human", "details": "for Tmax: single oral 600 mg/150 μCi [14C]IBI351, fasted, median (min, max)", "experimental": "(§1) This was a single-center, single-dose, open-trial study involving six healthy Chinese male subjects. They received a single dose of 600 mg/150 μCi [^14C]IBI351 on day 1 after fasting for at least 10 h. Blood, urine, and fecal samples were collected at specified time points or intervals within 15 days (0–336 h) following the administration of [^14C]IBI351.\n(§2) The endpoint of blood analysis was a plasma radioactivity concentration less than 1/8 of the baseline plasma value. Venous blood samples were collected from the six subjects (01101–01106) at the following time points (in hours): −1 (pre-dosing), 0.5, 1, 2, 4, 8, 12, 24, and at 24-h intervals (post-dosing). Whole blood aliquots were collected for radioactivity measurement, and blood samples were centrifuged (1500 [± 10] g, 4 ℃, 10 min) for metabolite identification. All samples were stored at −10–−30 ℃ until analysis.\n(§3) Blood, plasma, urine, and fecal samples were analyzed for TRA using the Tri-Carb model 3110 TR liquid scintillation counter (PerkinElmer, Waltham, MA, USA). Blood samples were divided into two parallel portions (0.5 g) and completely burned by OX-501 oxidizer (R.J. Harvey, Tappan, NY, USA). Finally, the samples were analyzed by liquid scintillation counting. Plasma (0.5 g) and urine (1 g) samples were directly analyzed by liquid scintillation counting. Fecal samples were first homogenized with isopropanol/water (50/50, v/v). The excretion of radioactivity in the urine and feces, referring to the cumulative recovery of total radioactive material in each time period, was defined as the sum of the percentage of TRA in the urine and feces relative to the administered dose. The TRA in each sample during a time period and the percentage of TRA related to the administered dose (% of dose) were calculated using the following formula: % of dosage = (TRA detected in the sample/radioactive dosage) × 100%.\nStatistical analysis of TRA in the whole blood and plasma, concentrations of IBI351, corresponding pharmacokinetic parameters, and urine and fecal excretion data was performed using Microsoft Excel 2010. The pharmacokinetic parameters were calculated using Pkanalix 2021R1 (Lixoft, Antony, France). The drug-time curve was plotted using WinNonlin® (version 8.3, Certara). Data were analyzed using the SAS 9.4 software and presented as mean ± standard deviation."}, "[2]": {"test": "Mass balance: recovery of total radioactivity in urine and feces", "format": "in vivo, human", "details": "for Radioactivity excreted in feces / Radioactivity excreted in urine / Total radioactive excretion in urine and feces: 0–312 h, mean±SD, n=6", "experimental": "as §1\nUrine and fecal samples were collected for mass balance analysis and metabolite profiling. Urine samples were collected in polyethylene containers during the following time periods (in hours): −24–0 (pre-dosing), 0–4, 4–8, 8–12, 12–24, and at 24-h intervals thereafter (post-dosing) and stored at 4 ℃ during the collection period. Fecal samples were collected during the following periods (in hours): −24–0 (pre-dosing), 0–24, and at 24-h intervals thereafter (post-dosing). The collection of urine and fecal samples was terminated when the TRA in the combined biological samples (urine + feces) from each subject exceeded 90% of the administered dose. Additionally, the radioactivity in samples collected over two consecutive days should be less than 1% of the administered dose. The samples were weighed in special containers and stored at −10 ℃ to −30 ℃ until analysis.\nas §3"}, "[3]": {"test": "Ratio of total radioactivity in whole blood to plasma", "format": "in vivo, human", "details": "Mean±SD, n=6", "experimental": "as §2, §3\nThe radioactivity in the whole blood and plasma is represented by the TRA ratio between the whole blood and plasma."}, "[4]": {"test": "Radioactive metabolite profiling in pooled plasma, urine and feces", "format": "in vivo, human", "experimental": "Moreover, four plasma samples at 1 h, 4 h, 48 h, and 96 h were obtained by mixing them in equal volumes. Urine samples were pooled across individuals at an equal volume to obtain one pooled sample within each time period of 0–24 h, 24–48 h, and 48–96 h. Fecal samples (0–192 h) were pooled at the same weight percentages across collection intervals for each subject. Moreover, fecal samples were pooled across individuals at an equal weight to obtain one pooled sample within each time period of 0–72 h, 72–120 h, and 120–192 h. Plasma, urine, and fecal homogenates were extracted and concentrated using organic solvents, and then the redissolved solutions were used for metabolite profile analysis. The plasma, urine, and fecal extracts were separated on HPLC columns, and the HPLC flow fractions were collected in Deepwell LumaPlateTM-96 plates at 15 s/fraction using an automatic fraction collector. The radioactivity of each fraction was quantified using a microplate detector with ARC® Convert and Evaluation software (3.0.2.379) and transformed to obtain the radioactive metabolite spectra. The radioactive metabolite spectra of each sample were integrated to acquire the peak area of each radioactive metabolite peak, the proportion of each spectral peak to the total radioactive intensity of the sample, and the proportion of the radioactivity of the major metabolites to the TRA in the corresponding blood, urine, and fecal samples. Therefore, the ratio of metabolites' concentrations to the total drug exposure (AUC) in the plasma and the ratio of each metabolite's level to the dose administered in the urine and feces were calculated. Liquid chromatography with low-energy radionuclide detection and mass spectrometry was used to identify the main metabolites in human plasma, urine, and fecal samples and to identify the possible biotransformation pathways of IBI351 in these samples."}, "albumin": {"target": "T1, albumin (Homo sapiens, UniProt P02768)", "T1 construct": "from tissue; host or cells: plasma of healthy human male subjects", "T1 sequence (P02768 25-609)": "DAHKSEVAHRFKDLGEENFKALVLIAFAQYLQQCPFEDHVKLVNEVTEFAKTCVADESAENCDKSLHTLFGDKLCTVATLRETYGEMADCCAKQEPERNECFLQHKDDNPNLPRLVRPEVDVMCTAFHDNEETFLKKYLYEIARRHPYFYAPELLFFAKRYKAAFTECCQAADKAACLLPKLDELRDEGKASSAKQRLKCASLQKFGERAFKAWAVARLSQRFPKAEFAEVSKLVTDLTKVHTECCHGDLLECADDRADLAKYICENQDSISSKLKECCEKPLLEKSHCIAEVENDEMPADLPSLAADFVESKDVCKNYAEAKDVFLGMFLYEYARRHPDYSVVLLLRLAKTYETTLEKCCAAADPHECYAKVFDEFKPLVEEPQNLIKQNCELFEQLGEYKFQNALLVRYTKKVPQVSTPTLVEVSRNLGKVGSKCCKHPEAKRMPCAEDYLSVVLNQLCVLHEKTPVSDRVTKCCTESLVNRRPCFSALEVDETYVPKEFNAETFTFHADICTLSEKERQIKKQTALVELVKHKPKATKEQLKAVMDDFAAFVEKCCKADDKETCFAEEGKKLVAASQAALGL", "test": "Covalent binding analysis of IBI351 in the plasma", "format": "in vitro ADME"}, "[5]": {"details": "total plasma radioactivity, single oral 600 mg/150 μCi, n=6, mean±SD"}, "[6]": {"details": "individual subjects, rows in order 01101–01106, listed as [14C]IBI351"}},
  "note": "Several values for one entry are separate records, joined by “and”; a condition that tells them apart may be missing. Equal values may be shown once. Marks after values point to notes of the source that are not given here.",
  "data": [
    {"smiles": "C=CC(=O)N1CCN2c3c(c(=O)n(-c4c(C)ccnc4C(C)C)c4nc(-c5c(O)cccc5F)c(Cl)cc34)N(C)C(=O)C2C1", "note": "(stereo not drawn) [IBI351]", "values": [
      {"measurement": "quantifiable time point", "setting": "[1]; TRA in plasma", "result": 456, "unit": "h"},
      {"measurement": "Tmax", "setting": "[1]; total plasma radioactivity, n=6", "result": "2.00 h and 2.00 (2.00, 4.00) h"},
      {"measurement": "Tmax", "setting": "[1]; total plasma radioactivity, n=6, listed as [^14C]IBI351", "result": 2, "unit": "h"},
      {"measurement": "AUC0–inf", "setting": "[1]; [5]", "result": "4.69×10^5±1.10×10^5 h·ng Eq./mL"},
      {"measurement": "AUC0–last", "setting": "[1]; [5]", "result": "4.33×10^5±1.04×10^5 h·ng Eq./mL"},
      {"measurement": "CL/F", "setting": "[1]; [5]", "result": "1.32 ± 0.319", "unit": "L/h"},
      {"measurement": "Cmax", "setting": "[1]; [5]", "result": "7.26 × 10^3 (± 1.68 × 10^3) ng Eq./mL and 7.26×10^3±1.68×10^3 ng Eq./mL"},
      {"measurement": "MRT0–last", "setting": "[1]; [5]", "result": "108 ± 4.20", "unit": "h"},
      {"measurement": "T1/2", "setting": "[1]; [5]", "result": "129 (± 21.7) h and 129±21.7 h"},
      {"measurement": "Vz/F", "setting": "[1]; [5]", "result": "242 ± 50.7", "unit": "L"},
      {"measurement": "T1/2", "setting": "[1]; total plasma radioactivity, single oral 600 mg/150 μCi, n=6, mean±SD, listed as [^14C]IBI351", "result": 129, "unit": "h"},
      {"measurement": "Radioactivity excreted in feces", "setting": "[2]", "result": "approximately 86.30 % of dose"},
      {"measurement": "Radioactivity excreted in urine", "setting": "[2]", "result": "9.27 % of dose"},
      {"measurement": "Total radioactive excretion in urine and feces", "setting": "[2]", "result": "95.56 % of dose"},
      {"measurement": "Radioactivity excreted in feces", "setting": "[2]; listed as [14C]IBI351", "result": "86.30±4.90 % of dose"},
      {"measurement": "Radioactivity excreted in urine", "setting": "[2]; listed as [14C]IBI351", "result": "9.27±1.83 % of dose"},
      {"measurement": "Total radioactive excretion in urine and feces", "setting": "[2]; listed as [14C]IBI351", "result": "95.56±3.41 % of dose"},
      {"measurement": "Radioactivity excreted in feces", "setting": "[2]; listed as [^14C]IBI351", "result": "86.30 % of dose"},
      {"measurement": "Radioactivity excreted in urine", "setting": "[2]; listed as [^14C]IBI351", "result": "9.27 % of dose"},
      {"measurement": "Total radioactive excretion in urine and feces", "setting": "[2]; listed as [^14C]IBI351", "result": "95.56 % of dose"},
      {"measurement": "Excretion rate", "setting": "[2]; at 144 h (six days) post-dose", "result": "less than 1.00%"},
      {"measurement": "Urine and feces recovered radioactivity", "setting": "[2]; individual subjects, rows in order 01101–01106, 01105 normalized to 100.00%, listed as [14C]IBI351", "result": "92.36 % of dose and 94.47 % of dose and 91.45 % of dose and 96.48 % of dose and 100.00 % of dose and 98.61 % of dose"},
      {"measurement": "Feces recovered radioactivity", "setting": "[2]; [6]", "result": "80.29 % of dose and 87.83 % of dose and 92.67 % of dose and 89.35 % of dose and 80.67 % of dose and 86.99 % of dose"},
      {"measurement": "Urine recovered radioactivity", "setting": "[2]; [6]", "result": "11.69 % of dose and 7.48 % of dose and 11.16 % of dose and 8.65 % of dose and 7.33 % of dose and 9.26 % of dose"},
      {"measurement": "TRA excreted into the feces", "setting": "[2]; of the administered dose, from 0 h to 192 h", "result": 86.30, "unit": "%"},
      {"measurement": "TRA excreted into the urine and feces", "setting": "[2]; of the administered dose, period printed as 0–192 h", "result": 95.56, "unit": "%"},
      {"measurement": "Total radioactive content excreted in urine and feces within 120 h", "setting": "[2]; within 120 h (five days) after administration, on average", "result": "more than 90.00%"},
      {"measurement": "Ratio of whole blood to total plasma radioactivity", "setting": "[3]; 0.50 h post-dose", "result": "0.655±0.0841"},
      {"measurement": "Ratio of whole blood to total plasma radioactivity", "setting": "[3]; 1.00 h post-dose", "result": "0.716±0.0588"},
      {"measurement": "Ratio of whole blood to total plasma radioactivity", "setting": "[3]; 4.00 h post-dose", "result": "0.606±0.0323"},
      {"measurement": "Ratio of whole blood to total plasma radioactivity", "setting": "[3]; 12.0 h post-dose", "result": "0.571±0.0884"},
      {"measurement": "Ratio of whole blood to total plasma radioactivity", "setting": "[3]; 24.0 h post-dose", "result": "0.626±0.0402"},
      {"measurement": "Ratio of whole blood to total plasma radioactivity", "setting": "[3]; 48.0 h post-dose", "result": "0.670±0.0320"},
      {"measurement": "Feces (0–192 h) % of dose", "setting": "[4]; pooled feces 0–192 h", "result": "9.71 % of dose"},
      {"measurement": "Plasma (0–144 h) % of AUC (share of total plasma radioactivity exposure)", "setting": "[4]; pooled plasma 0–144 h", "result": "4.54 % of AUC"},
      {"measurement": "Plasma (0–144 h) Metabolite/parent drug (%)", "setting": "[4]; pooled plasma 0–144 h, relative to the parent drug", "result": 100.00, "unit": "%"},
      {"measurement": "Urine (0–96 h) % of dose", "setting": "[4]; pooled urine 0–96 h", "result": "1.16 % of dose"},
      {"measurement": "Feces+urine % of dose", "setting": "[4]; sum of feces 0–192 h and urine 0–96 h", "result": "10.87 % of dose"},
      {"measurement": "covalent binding in the plasma", "setting": "albumin", "result": "presence of covalent binding between IBI351 and albumin"}
    ]}
  ]
}
